Measured values as given in paper PMC7887271, “Fast acting allosteric phosphofructokinase inhibitors block trypanosome glycolysis and cure acute African trypanosomiasis in mice” (Nature Communications, 2021).

Legend:
hPFK-P = target: T1, hPFK-P (Homo sapiens, UniProt Q01813); experiment: ALDO/G3PDH/TIM linked enzyme assay, human PFK-P; assay type: biochemical; details: aldolase/TIM linked assay, 25 °C; highest concentration 100 µM
T1 construct: made in house; host or cells: PFK-deficient Saccharomyces cerevisiae
T1 sequence (Q01813 1-784): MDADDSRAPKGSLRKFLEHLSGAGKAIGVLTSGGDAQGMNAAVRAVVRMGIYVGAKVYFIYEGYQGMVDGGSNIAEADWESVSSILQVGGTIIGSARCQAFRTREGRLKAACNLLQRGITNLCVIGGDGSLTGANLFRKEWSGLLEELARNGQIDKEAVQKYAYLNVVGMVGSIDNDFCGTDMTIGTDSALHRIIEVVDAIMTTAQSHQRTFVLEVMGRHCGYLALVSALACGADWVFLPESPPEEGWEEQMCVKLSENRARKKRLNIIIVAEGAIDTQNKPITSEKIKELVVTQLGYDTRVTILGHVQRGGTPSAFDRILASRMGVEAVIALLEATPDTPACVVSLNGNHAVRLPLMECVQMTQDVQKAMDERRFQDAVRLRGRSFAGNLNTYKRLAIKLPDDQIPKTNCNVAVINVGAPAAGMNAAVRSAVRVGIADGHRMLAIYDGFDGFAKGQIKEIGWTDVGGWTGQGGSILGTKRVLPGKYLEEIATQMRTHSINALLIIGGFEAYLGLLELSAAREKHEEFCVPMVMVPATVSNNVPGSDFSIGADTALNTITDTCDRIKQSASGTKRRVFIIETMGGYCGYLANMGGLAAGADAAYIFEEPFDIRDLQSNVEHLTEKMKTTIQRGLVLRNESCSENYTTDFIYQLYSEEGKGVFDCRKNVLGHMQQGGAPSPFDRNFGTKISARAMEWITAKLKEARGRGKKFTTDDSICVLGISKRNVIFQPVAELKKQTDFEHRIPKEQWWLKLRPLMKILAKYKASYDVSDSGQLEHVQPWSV
Method: (§1) Enzyme activity was measured using an aldolase/TIM linked assay at 25 °C. […] Experiments were carried out in duplicate. Data are presented as mean values ± standard deviation. […] Source data are provided as a Source Data File. b Kill time of CTCB-405 compared with existing HAT drugs in the clinic. […] Over 99% of trypanosomes were killed in under 30 min compared with much slower killing rates for the other drugs. The points on the graph for CTCB-405 were determined from two independent biological replicate experiments with each time point measured twice (using duplicate technical replicates). The ESD for each point on the graph is between 0.7 and 1.4%. For drugs in clinical use each point on the graph is the average of two technical replicates from one experiment (with a maximum difference of 7.8% for any of the points). Source data are provided as a Source Data File.
(§2) In the PFK/PYK/LDH assay, the linked PYK activity acts to convert the ADP produced by PFK back to ATP. As ATP is an inhibitor of human PFK (but not TbPFK) at concentrations higher than ~0.5 mM the regeneration of ATP is likely to affect the assay readout. […] TIM interconverts GA3P and DHAP, and DHAP is reduced to glycerol 3-phosphate by G3PD, alongside the oxidation of NADH to NAD^+, which was measured by observing the change in UV absorbance at 340 nm for 10 minutes at 25° C using a Spectramax© M5 Multimode plate reader. […]

hPFK-M = target: T2, hPFK-M (Homo sapiens, UniProt P08237); experiment: ALDO/G3PDH/TIM linked enzyme assay, human PFK-M; assay type: biochemical; details: aldolase/TIM linked assay, 25 °C; highest concentration 100 µM
T2 construct: made in house; host or cells: PFK-deficient Saccharomyces cerevisiae
T2 sequence (P08237 1-780): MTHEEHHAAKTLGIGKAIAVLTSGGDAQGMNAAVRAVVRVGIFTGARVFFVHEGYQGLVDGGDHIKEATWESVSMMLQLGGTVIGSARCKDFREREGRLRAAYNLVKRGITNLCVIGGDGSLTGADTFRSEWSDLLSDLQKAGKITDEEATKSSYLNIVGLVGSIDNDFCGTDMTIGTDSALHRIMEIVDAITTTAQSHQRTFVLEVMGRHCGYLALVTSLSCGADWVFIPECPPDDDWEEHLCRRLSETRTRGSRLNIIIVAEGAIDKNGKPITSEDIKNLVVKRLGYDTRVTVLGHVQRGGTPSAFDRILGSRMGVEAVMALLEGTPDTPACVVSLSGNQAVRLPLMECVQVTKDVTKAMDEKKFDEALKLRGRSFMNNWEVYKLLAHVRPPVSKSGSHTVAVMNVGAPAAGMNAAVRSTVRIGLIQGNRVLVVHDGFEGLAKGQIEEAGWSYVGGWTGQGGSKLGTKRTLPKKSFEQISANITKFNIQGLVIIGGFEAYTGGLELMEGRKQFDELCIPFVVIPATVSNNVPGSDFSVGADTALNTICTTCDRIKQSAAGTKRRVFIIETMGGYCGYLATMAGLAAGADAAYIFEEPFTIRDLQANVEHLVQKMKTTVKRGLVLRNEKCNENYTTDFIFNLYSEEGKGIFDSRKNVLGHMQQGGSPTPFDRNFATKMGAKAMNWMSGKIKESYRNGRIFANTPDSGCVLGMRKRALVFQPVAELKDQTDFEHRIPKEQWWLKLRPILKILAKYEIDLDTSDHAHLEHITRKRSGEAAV
Method: as §1, §2

CN(C)CCn1ccc2c(ccn2Cc2ccc(Cl)c(Cl)c2)c1=O [CTCB-405, 1-[(3,4-Dichlorophenyl)methyl]-5-[2-(dimethylamino)ethyl] pyrrolo[3,2-c]pyridin-4-one]
inhibition of hPFK-P (hPFK-P): no significant inhibition | inhibition of hPFK-M (hPFK-M): no significant inhibition
